Source: publication PMC7615700, “Is the ADP ribose site of the Chikungunya virus NSP3 Macro domain a target for antiviral approaches?” (Acta tropica, 2020)

Legend:
CHIKV = conditions: cited from earlier work; for in vitro anti-CHIKV activity: by inhibiting RNA production and viral protein expression, ref Lani et al., 2016
[1] = MTT cell viability assay in Huh-7 cells; conditions: human
[2] = tested on: CHIKV-Fluc SGR (CHIKV subgenomic replicon) in Huh-7 cells; assay: CHIKV-Fluc SGR replication assay (luciferase) in Huh-7 cells; conditions: for EC50 / CHIKV %replication 20 uM: Huh-7, CHIKV-Fluc SGR; for EC50: 24 h post treatment; for SI (CC50/EC50): Huh-7; for CHIKV %replication 20 uM: 24 h treatment; for inhibition at 20 µM: Huh-7, read-out: inhibition of CHIKV replication
[3] = Cell viability in RD cells; format: cell-based; conditions: human, RD rhabdomyosarcoma cells electroporated with CHIKV-Fluc RNA
Description: (§1) DMSO was used as non-treated control.

[4] = Cell viability in C2C12 cells; format: cell-based, murine; conditions: mouse, C2C12 myoblast cells electroporated with CHIKV-Fluc RNA
Description: as §1

[5] = tested on: CHIKV-Fluc SGR in RD cells; assay: CHIKV-Fluc replication assay in RD cells; conditions: Chikungunya virus, read-out: inhibition of CHIKV replication
Huh-7 cells = assay: MTT cell viability assay in Huh-7 cells; conditions: 20 μM, Huh-7, MTT
[6] = tested on: CHIKV-D-Luc SGR in Huh-7 cells; assay: CHIKV-D-Luc SGR dual luciferase replicon assay in Huh-7 cells; conditions: Huh-7, non-toxic concentrations
[7] = tested on: CHIKV-Fluc SGR in C2C12 cells; assay: CHIKV-Fluc replication assay in C2C12 cells; conditions: Chikungunya virus, C2C12, read-out: inhibition of CHIKV replication
[8] = decimal comma; ref ZINC15; cited from earlier work

Q: With `O=c1cc(-c2ccccc2)oc2cc(O)c(O)c(O)c12` [Baicalein] as the molecule, how does the “inhibition of virus entry versus replication” value (CHIKV; ref Oo et al., 2018) read?
A: Its value is “higher inhibition on virus entry than replication”.

Q: Which CC50 at 24 h [1] does the source give for `CC(c1ccccc1)N(Cc1nc(C(=O)NCCN2CCOCC2)co1)Cc1ccc(Cl)cc1Cl` (centres unmarked) [Compound 1C5] here?
A: Its CC50 at 24 h is 27.5 µM.

Q: And the EC50 ([2]; Chikungunya virus, Huh-7, 24 h)?
A: The EC50 was 19.8 µM.

Q: And the “SI (CC50/EC50)” value [2]?
A: The value was 1.4.

Q: With `O=C(NCc1cccnc1)c1coc(CN(Cc2ccccc2)Cc2ccc3c(c2)OCO3)n1` [Compound 1C13] as the molecule, how does the CC50 at 24 h [1] read?
A: The CC50 at 24 h was 18.1 µM.

Q: And the EC50 ([2]; Chikungunya virus, Huh-7, 24 h)?
A: Its EC50 is 6.9 µM.

Q: What about the “SI (CC50/EC50)” value [2] of the same molecule?
A: Its value is 2.6.

Q: Which results are given for `CC(c1ccccc1)N(Cc1cccc(Cl)c1)Cc1nc(C(=O)NCCN2CCOCC2)co1` (centres unmarked) [Compound 2C5]?
A: CC50 at 24 h [1]: 27.4 µM; EC50 ([2]; Chikungunya virus, Huh-7, 24 h): 27.3 µM; SI (CC50/EC50) [2]: 1.0

Q: Which results are given for `CC(c1ccccc1)N(Cc1nc(C(=O)NCCN2CCOCC2)co1)Cc1ccccc1F` (centres unmarked) [Compound 3C5]?
A: CC50 at 24 h [1]: 40.5 µM; EC50 ([2]; Chikungunya virus, Huh-7, 24 h): 26.9 µM; SI (CC50/EC50) [2]: 1.5

Q: For `COc1cccc(CN(Cc2nc(C(=O)NCCN3CCOCC3)co2)C(C)c2ccccc2)c1` (centres unmarked) [Compound 4C5], which CC50 at 24 h [1] is on record?
A: Its CC50 at 24 h is 45.2 µM.

Q: What about the EC50 ([2]; Chikungunya virus, Huh-7, 24 h) of the same molecule?
A: Its EC50 is 29.3 µM.

Q: What about the “SI (CC50/EC50)” value [2] of the same molecule?
A: The value was 1.5.

Q: What does the source list for `CC(c1ccccc1)N(Cc1cccc(F)c1)Cc1nc(C(=O)NCCN2CCOCC2)co1` (centres unmarked) [Compound C5]?
A: viability at 24 h, 100 µM [3]: 65%; viability at 24 h, 100 µM [4]: 49%; inhibition at 100 µM [5]: 100%; CC50 at 24 h [1]: 38.9 µM; viability at 24 h, 20 µM [1]: 94%; % Toxicity (20μM) (Huh-7 cells): None; CHIKV %replication 20 uM [2]: 53%; EC50 ([2]; Chikungunya virus, Huh-7, 24 h): 12.7 µM; inhibition at 20 µM ([2]; Chikungunya virus): 53%; SI (CC50/EC50) [2]: 3.1; Rluc levels (input translation and early replication) [6]: significantly decreased; inhibition at 100 µM [7]: 70%

Q: Which results are given for `O=C(NCc1cccnc1)c1coc(CN(Cc2ccoc2)Cc2cccc(C(F)(F)F)c2)n1` [Compound C13]?
A: viability at 24 h, 100 µM [3]: 70%; viability at 24 h, 100 µM [4]: 51%; logP ZINC15 [8]: 4,81; inhibition at 100 µM [5]: 95%; CC50 at 24 h [1]: 36.8 µM; viability at 24 h, 20 µM [1]: 94%; % Toxicity (20μM) (Huh-7 cells): None; CHIKV %replication 20 uM [2]: 66%; EC50 ([2]; Chikungunya virus, Huh-7, 24 h): 11.9 µM; inhibition at 20 µM ([2]; Chikungunya virus): 66%; SI (CC50/EC50) [2]: 3.2; EC50 [2]: 11.6 µM; Rluc levels (input translation and early replication) [6]: significantly decreased; inhibition at 100 µM [7]: 64%

Q: With `O=c1c(O)c(-c2ccc(O)c(O)c2)oc2cc(O)ccc12` [fisetin] as the molecule, how does the “in vitro anti-CHIKV activity” value (CHIKV) read?
A: Its value is “showed in vitro anti-CHIKV activity”.

Q: For `O=c1c(O)c(-c2ccc(O)c(O)c2)oc2cc(O)c(O)c(O)c12` [quercetagetin], which “in vitro anti-CHIKV activity” value (CHIKV) is on record?
A: Its value is “showed in vitro anti-CHIKV activity”.
